Measured values from paper PMC4581252, “Permeability Study of Polyphenols Derived from a Phenolic-Enriched Hibiscus sabdariffa Extract by UHPLC-ESI-UHR-Qq-TOF-MS” (International Journal of Molecular Sciences, 2015).

Experiments:
Type in all cases: in vitro ADME, human
Caco-2 cell monolayer [1] = test: Caco-2 permeability of free PEHS extract: compounds detected in transport medium, cytoplasm and membrane; conditions: free PEHS 2500 μg/mL; for Compound detected in transport medium, Ap-Bas / Compound detected in transport medium, Bas-Ap: receiver chamber; for Compound detected in transport medium, Bas-Ap: basolateral to apical
Source text: (§1) One of the aims of this study was to compare the intestinal absorption of HS compounds when the PEHS extract was in a free form or in an encapsulated formulation, using the Caco-2 model system. This model is a well-established in vitro model for the investigation of the intestinal permeability of different compounds or drugs. Prior to the transport studies, the Caco-2 cell monolayer was established and validated. Monolayer integrity and reliability were ensured by measuring the transepithelial electrical resistance (TEER) values, which remained stable during the assay with the experimental conditions assayed. Afterwards, samples from apical and basolateral compartments obtained at different time points and cytoplasmic and membrane fractions of the cell monolayer collected at the end of the assay (see Section 3.3 and Section 3.4) were analyzed by UHPLC-ESI-UHR-Qq-TOF-MS in order to identify which compounds crossed the Caco-2 cell monolayer.
(§2) To assess the potential intestinal absorption of PEHS and pure compounds, experiments were conducted using Caco-2 cells derived from human colorectal adenocarcinoma cells (obtained from the American Type Culture Collection). Cells were cultured in Dulbecco’s Modified Eagle Medium (DMEM) containing 10% (v/v) fetal bovine serum (FBS) and incubated at 37 °C in a humidified 5% CO2 air atmosphere. Cell monolayers were prepared by seeding 5 × 10^5 Caco-2cells/well on a six-well Transwell insert filter. Monolayers were used 19–22 days after seeding. The integrity of each cell monolayer was checked by measuring its transepithelial electrical resistance (TEER) with an epithelial voltohmmeter (EVOM, World Precision Instrument, Sarasota, FL, USA) before and after the experiments. The culture medium was replaced with fresh medium 24 h before the transport experiments. Compounds were added after washing the Caco-2 cell monolayer twice with pre-warmed HBSS medium (pH 7.4), in the apical or in the basolateral side, to evaluate the transport characteristics of the cells. Permeability studies were done by adding the PEHS solution at a concentration of 2500 μg/mL, quercetin at 18.1 μg/mL, quercetin-3-glucoside at 46.4 μg/mL, quercetin-3-glucuronide at 47.8 μg/mL, and N-feruloyltyramine at 31.3 μg/mL, while the receiving chamber contained the corresponding volume of transport medium. Samples were taken at different times (30, 60, 90, 120 min) and stored at −80 °C until their treatment.
(§3) After the permeation study, the Caco-2 cell monolayer was collected and the cells were lysed with three subsequent freezing-thawing cycles followed by bath sonication, of 10 min each step. Then, the samples were centrifuged during 15 min at 14,000 rpm and 4 °C, and the supernatants (cytoplasmic fraction) and the pellets (membranes) were stored at −80 °C.
(§4) The samples collected in the receiving chamber during the permeability assays were centrifuged for 15 min at 12,000 rpm and 4 °C. […] Finally, the samples were stored at −80 °C until the analysis, avoiding possible degradations.
(§5) The cytoplasms and cell membranes collected at the end of the permeability assays were subjected to protein precipitation using methanol, vortex-mixed, kept at −20 °C for 2 h and centrifuged at 12,000 rpm for 15 min at 4 °C. Finally, the supernatants were evaporated in a vacuum concentrator, dissolved in 100 μL of methanol, and then spiked with 10 μg/mL of apigenin, used as an internal standard for their analysis.
For the analysis of the samples, a Dionex Ultimate 3000 UHPLC (Thermo Scientific, Sunnyvale, CA, USA) was used coupled with an ultra-high resolution quadrupole time-of-flight mass spectrometer maXis (UHR-Qq-TOF-MS) from Bruker Daltonik (Bremen, Germany). The chromatographic separation was performed in a Zorbax Eclipse Plus C-18 column (4.6 × 150 mm, 1.8 μm) at a flow rate of 0.3 mL/min using an injection volume of 5 μL.

Caco-2 cell monolayer [2] = test: Caco-2 permeability of encapsulated (liposome) PEHS extract: compounds detected in transport medium, cytoplasm and membrane; conditions: encapsulated PEHS 2500 μg/mL; for Compound detected in transport medium, Bas-Ap / Compound detected in transport medium, Ap-Bas: receiver chamber
Source text: as §1
Primary aqueous extract was obtained from sun-dried calyces from plants harvested in Senegal, with an approximate plant-to-extract ratio of 5:1 as previously described. The purified PEHS extract was kindly provided by Monteloeder, Inc. (Elche, Alicante, Spain) and was essentially prepared as previously described. The retained phenolic fraction was finally eluted with 95% ethanol and 0.01% trifluoroacetic acid (TFA), rotatory evaporated and freeze-dried. The PEHS encapsulated formulation was performed using empty liposomes, whose final concentration was 2 mM, adding soy phosphatidylcholine to the blend. To permeabilize the liposome membrane ethanol 10% was used. The extract was dissolved in HBSS at the desired concentration (2500 μg/mL), stirred for 10 min, and finally filtered through 0.45 μm three times (PVD filter).
as §2, §3, §4

Caco-2 cell monolayer [3] = test: Caco-2 permeation of pure compounds related to PEHS (individual permeability assays); conditions: for Concentration in the receptor chamber, Basolateral-Apical Flux: 30 min (so in the source); for Concentration in the receptor chamber, Basolateral-Apical Flux / Concentration in the receptor chamber, Apical-Basolateral Flux: donor: quercetin 18.1, quercetin-3-glucoside 46.4, quercetin-3-glucuronide 47.8, N-feruloyltyramine 31.3 μg/mL, X ± SD; for Absorption across the Caco-2 intestinal barrier model (in words): pure compounds
Method: Standard calibration curves of the compounds under study were prepared using apigenin at a concentration of 10 μg/mL as an internal standard. […] The limits of detection (LODs) and limits of quantification (LOQs) for individual compounds in standard solutions were also calculated as S/N = 3 and S/N = 10, respectively, where S/N is the signal to noise ratio (Table 3). The compound concentrations were subsequently determined using the corrected area of each individual compound (three replicates) and by interpolation in the corresponding calibration curve. Repeatability of the proposed method was measured as the relative standard deviation (RSD, %) in terms of concentration. A mixed solution containing the analytes was injected several times (n = 3) on the same day (intraday precision) and three times on three consecutive days (interday precision, n = 9). Intraday repeatability of the method developed for all the analytes was from 0.11% to 1.93%, whereas the interday repeatability ranged from 0.17% to 2.06%.
as §2, §3
The samples collected in the receiving chamber during the permeability assays were centrifuged for 15 min at 12,000 rpm and 4 °C. The supernatant was spiked with apigenin stock solution, used as an internal standard at a concentration of 10 μg/mL, in order to avoid irreproducibility of results between analyses. Finally, the samples were stored at −80 °C until the analysis, avoiding possible degradations.
as §5
For the analysis of the samples, a Dionex Ultimate 3000 UHPLC (Thermo Scientific, Sunnyvale, CA, USA) was used coupled with an ultra-high resolution quadrupole time-of-flight mass spectrometer maXis (UHR-Qq-TOF-MS) from Bruker Daltonik (Bremen, Germany). […]

[4] = membrane fraction at end of assay, basolateral to apical
[5] = cytoplasmic fraction at end of assay, apical to basolateral
[6] = membrane fraction at end of assay, apical to basolateral

Compound	Compound detected in transport medium, Ap-Bas (Caco-2 cell monolayer [1]; apical to basolateral)	Compound detected in transport medium, Bas-Ap (Caco-2 cell monolayer [1])	Compound detected in transport medium, Bas-Ap (Caco-2 cell monolayer [2]; basolateral to apical)	Compound detected in cytoplasm, Ap-Bas (Caco-2 cell monolayer [2]; [5])	Concentration in the receptor chamber, Basolateral-Apical Flux (Caco-2 cell monolayer [3])	Concentration in the receptor chamber, Apical-Basolateral Flux (Caco-2 cell monolayer [3]; 30 min)	Concentration in the receptor chamber, Apical-Basolateral Flux (Caco-2 cell monolayer [3]; 60 min)	Concentration in the receptor chamber, Apical-Basolateral Flux (Caco-2 cell monolayer [3]; 90 min)	Concentration in the receptor chamber, Apical-Basolateral Flux (Caco-2 cell monolayer [3]; 120 min)	Absorption across the Caco-2 intestinal barrier model (in words) (Caco-2 cell monolayer [3])	also measured
O=C(/C=C/c1ccc(O)c(O)c1)O[C@@H]1CC(C(=O)O)=C[C@@H](O)[C@H]1O [5-O-caffeoylshikimic acid]	+	+	+								
O=C(/C=C/c1ccc(O)cc1)O[C@@H]1C[C@](O)(C(=O)O)C[C@@H](O)[C@H]1O [Coumaroylquinic acid]		+									Compound detected in membrane, Bas-Ap (Caco-2 cell monolayer [2]; [4]): +
O=C(/C=C/c1ccc(O)c(O)c1)O[C@H]1[C@H](O)C[C@](O)(C(=O)O)C[C@H]1O [Cryptochlorogenic acid]	+	+	+	+							Compound detected in cytoplasm, Bas-Ap (Caco-2 cell monolayer [2]; cytoplasmic fraction at end of assay, basolateral to apical): +; Compound detected in transport medium, Ap-Bas (Caco-2 cell monolayer [2]; apical to basolateral): +
COC(=O)C1OC(=O)CC1(O)C(=O)OC (stereo not drawn) [Hibiscus acid dimethylesther]				+							Compound detected in membrane, Ap-Bas (Caco-2 cell monolayer [2]; [6]): +; Compound detected in membrane, Bas-Ap (Caco-2 cell monolayer [2]; [4]): +
O=C1C[C@](O)(C(=O)O)[C@@H](C(=O)O)O1 [Hibiscus acid]				+							
COC(=O)c1cc(O)c(O)c(OC(=O)c2cc(O)c(O)c(O)c2)c1 [Methyldigallate, Methyl digallate]		+	+	+							
COc1cc(/C=C/C(=O)NCCc2ccc(O)cc2)ccc1O [N-feruloyltyramine]	+	+	+		1350 ± 40 ng/mL	690 ± 20 ng/mL	2300 ± 200 ng/mL	4200 ± 500 ng/mL	6600 ± 800 ng/mL	significant absorption	Compound detected in transport medium, Ap-Bas (Caco-2 cell monolayer [2]; apical to basolateral): +
O=c1c(O[C@@H]2O[C@H](CO)[C@@H](O)[C@H](O)[C@H]2O)c(-c2ccc(O)c(O)c2)oc2cc(O)cc(O)c12 [Quercetin-3-glucoside]					<LOQ	<LOQ	<LOQ	<LOQ	470 ± 30 ng/mL	lesser extent	
O=C(O)[C@H]1O[C@@H](Oc2c(-c3ccc(O)c(O)c3)oc3cc(O)cc(O)c3c2=O)[C@H](O)[C@@H](O)[C@@H]1O [Quercetin-3-glucuronide]					<LOQ	not detected	not detected	not detected	<LOQ	lesser extent	
O=c1c(O)c(-c2ccc(O)c(O)c2)oc2cc(O)cc(O)c12 [Quercetin]	+	+		+	1100 ± 400 ng/mL	280 ± 20 ng/mL	490 ± 30 ng/mL	1330 ± 20 ng/mL	1320 ± 10 ng/mL	significant absorption	Compound detected in cytoplasm, Ap-Bas (Caco-2 cell monolayer [1]; [5]): +; Compound detected in membrane, Ap-Bas (Caco-2 cell monolayer [1]; [6]): +; Time at which maximum permeation / maximum concentration was reached (Caco-2 cell monolayer [3]; both flux directions, sampling at 30, 60, 90, 120 min): 90 min; Final concentration in the basolateral-apical flux relative to the opposite flux (Caco-2 cell monolayer [3]; end of assay): around five-fold
Methylepigallocatechin		+									
